Source: ChEMBL document CHEMBL1140676, “Evaluation of broad spectrum protein kinase inhibitors to probe the architecture of the malarial cyclin dependent protein kinase Pfmrk” (Bioorg Med Chem Lett, 2007)
pIC50: −log10 of the molar value.

Key:
Protein kinase Pfmrk = target: T1, Protein kinase Pfmrk (Plasmodium falciparum, UniProt P90584); assay: Inhibition of Plasmodium falciparum Pfmrk
T1 sequence (P90584 whole entry): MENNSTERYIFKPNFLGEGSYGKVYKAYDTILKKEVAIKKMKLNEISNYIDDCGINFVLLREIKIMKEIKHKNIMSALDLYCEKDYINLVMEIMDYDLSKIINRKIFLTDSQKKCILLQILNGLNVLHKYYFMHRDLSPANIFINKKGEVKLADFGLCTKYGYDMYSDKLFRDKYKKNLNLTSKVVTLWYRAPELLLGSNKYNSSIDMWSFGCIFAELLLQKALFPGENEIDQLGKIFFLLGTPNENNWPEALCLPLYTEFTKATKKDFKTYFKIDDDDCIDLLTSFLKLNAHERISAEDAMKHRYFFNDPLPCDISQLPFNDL

Plasmodium falciparum [1] = assay: Antimalarial activity against drug-resistant Plasmodium falciparum D6; type: functional, organism-based
Plasmodium falciparum [2] = assay: Antimalarial activity against drug-resistant Plasmodium falciparum W2; type: functional, organism-based

Row | SMILES | pIC50 (Protein kinase Pfmrk) | pIC50 (Plasmodium falciparum [1]) | pIC50 (Plasmodium falciparum [2])
1 | O=S(=O)(NCCNC/C=C/c1ccc(Br)cc1)c1cccc2cnccc12 | < 3.30 | 5.32 | 5.68
2 | C[C@H]1CNCCN1S(=O)(=O)c1cccc2cnccc12 | < 3.30 | < 4.16 | 5.27
3 | N=C(N)NCCNS(=O)(=O)c1cccc2cnccc12 | < 3.30 |  | 
4 | CNCCNS(=O)(=O)c1cccc2cnccc12 | 4.15 | < 4.13 | < 4.43
5 | O=S(=O)(c1cccc2c(I)cccc12)N1CCCNCC1 | < 3.30 |  | 
6 | NCCCCNS(=O)(=O)c1cccc2c(Cl)cccc12 | < 3.30 |  | 
7 | NCCCCNS(=O)(=O)c1ccc2ccccc2c1 | < 3.30 |  | 
8 | NCCNS(=O)(=O)c1cccc2cnccc12 | 6.15 | < 4.14 | < 4.14
9 | NCCCCCCNS(=O)(=O)c1cccc2c(Cl)cccc12 | < 3.30 | 5.06 | 4.82
10 | O=S(=O)(c1cccc2c(Cl)cccc12)N1CCCNCC1 | < 3.30 |  | 
11 | O=S(=O)(c1cccc2cnccc12)N1CCNCC1 | < 3.30 | < 4.44 | 5.37
12 | O=S(=O)(c1cccc2cnccc12)N1CCCNCC1 [FASUDIL] | < 3.30 |  | 
